Results published in patent US20240139149A1, “THERAPEUTIC USES OF UROLITHIN DERIVATIVES” (Vandria SA, priority 2022, published 2024).

Test system: APTK-OVA tumors
Experiment: Adoptive transfer of UA-conditioned OT-1 T cells into Rag1−/− mice
Format: in vivo, mouse
Procedure: For adoptive cell transfer, purified splenic T cell from OT1 mice were isolated and activated using αCD3/αCD28 stimulation beads for 48 h. After magnetic bead removal, 1×10^6 T of activated T cell were intravenously injected into Rag1−/− recipients. To study survival of transferred T cells, stimulated OT-1 T cells were injected into mice without tumors. Subsequently, after 7 days, spleens were isolated and splenocytes were stained for the CD8+ subsets as described below. To understand antitumor immunity conferred by transferred OT-1 lymphocytes, cells were injected into mice carrying APTK-OVA tumors 10 days after subcutaneous organoid transplantation. Tumor growth was assessed as described above. Mice were kept under regular chow food for the T cell adoptive transfer experiment and sacrificed collectively when maximum tumor diameter extended 1.5 cm.
Tumors were minced and digested with Tumor & Tissue Dissociation Reagent (BD Horizon) for 30 min. The remaining organ pieces were filtered through a 70 µm cell strainer. Cells were then washed with PBS 1% BSA and 2 mM EDTA. Immune cells were enriched on a 30%/40%/75% Percoll gradient after a 1700 rpm 17 min centrifugation. Then, tumor immune filtrates or activated T cells were stained with Fixable Viability Dye-eF780 (65-0865-14; eBioscience), αCD45-FITC (30-F11; 11-0451-85; eBioscience), αCD11b-BV650 (M1/70; 56340; BD) α-CD11c-BV785 (HL3; 563735; BD), aLy6G-BV605 (53-6.7; 563005; BD), aLy6C-AF700 (HK1.4; 128024; Biolegend), aF4/80-PE (BM8; 12-4801-82, eBioscience), aPD-L1-PECy7 (MIH5; 25-5982-80, eBioscience); or with Fixable Viability Dye-eF780 (ebioscience), αCD45-BV786 (30-F11; 564225; BD), αCD4-BUV496 (GK1.5; 564667; BD), αCD8-BV605 (100744; Biolegend), aPD1-APC (J43; 17-9985-82; eBioscience), aTIM-3-PECy7 (RMT3-23; 119715; Biolegend), aCTLA4-PE (UC10-4B9; 106305; Biolegend) and aLag3-BV421 (C9B7W; 125221, Biolegend); or with Fixable Viability Dye-eF780 (eBioscience), αCD4-FITC (H129.19; 553650; BD), αCD8-APC (53-6.7; 17-0081-83; eBioscience), αCD44-AF400 (IM7; 103026; Biolegend), αCD62L-BV785 (MEL-14; 104440; Biolegend), αSca-1-PerCP-Cy5.5 (D7; 45-5981-82; eBioscience), αCD95-PE (Jo2; 554258; BD); or with Fixable Viability Dye-eF780 (eBioscience), αCD8-BV650 (53-6.7; 563234; BD), αCD4-BUV496 (GK1.5; 564667; BD), αCD127-APC (A7R34; 17-1271-82; eBioscience), αCD95-FITC (SA367H8;152605; Biolegend), αCD44-AF400 (IM7; 103026; Biolegend), αCD62L-BV785 (MEL-14; 104440; Biolegend), αSca-1-PerCP-Cy5.5 (D7; 45-5981-82; eBioscience) followed by intracellular staining of aTCF1-PE (S33-966; 564217; BD), or PGC-1α (sc-518025; D-5; santa cruz), or aCyclinD1 (MA5-28534, DCS-6; Invitrogen) with transcription factor buffer set kit (BD Biosciences). To study cytokine expression, tumor immune infiltrates were stimulated ex vivo with 20 ng/mL PMA and […] Ionomycin (Sigma) for 3 h in T cell activation medium with Brefeldin A (Biolegend). For T cell in vitro activation experiments over several days, Brefeldin A was added to the medium for the last 3 hours. Cells were then stained with Fixable Viability Dye-eF780 (eBioscience), αCD8-PeCy7 (53.6-7; 100722; Biolegend), αCD4-AF700 (GK1.5; 100429; Biolegend), and intracellular staining for cytokine assessment was performed with BD Cytofix/Cytoperm (BD) with 20 min fixation and overnight incubation with αGranzyme B-FITC (GB11; 515403; Biolegend), αIFNγ-PerCPCy5.5 (XMG1.2; 45-7311-82; eBioscience) and αTNFa-BV711 (MP6-XT22; 563944; BD). For flow cytometric analysis of mitochondria and lysosomes 500 μl of Mitotracker Red (200 nM; ThermoFisher) or Lysotracker Red DND-99 (75 nM; ThermoFisher) were applied followed by surface staining. To study changes in mitochondrial membrane potential, Mitoprobe TMRM kit (ThermoFisher) was used according to the manufacturer's instructions. Cell proliferation was assessed by CellTrace Violet (Invitrogen, C34557) at a concentration of […] according to manufacturer's instructions. […]

## O=c1oc2cc(O)ccc2c2ccc(O)cc12 [UA, Urolithin A]
UA-T cell transfer
  CD62L expression in CD8+ TIL: remained unchanged
  expression of CD44 in CD8+ TIL: lower expression
  number of TCF1HiCD8+ tumor infiltrating T cells: higher number
UA-conditioned vs control OT-I T cells
  suppression of APTK-OVA tumors: more substantial tumor suppression
UA-pretreated T cells
  Tim3HiPD1Hi terminally exhausted CD8+ T cells in the TME: less
